Measured values as given in ChEMBL document CHEMBL1134115, “Antimycobacterial activity of 9-sulfonylated/sulfenylated-6-mercaptopurine derivatives” (Bioorg Med Chem Lett, 2001).
Converted amounts (≈) assume the structure as drawn.

Legend:
Format in all cases: functional
[1] = tested on: Mycobacterium tuberculosis; test: Antimycobacterial activity against Mycobacterium tuberculosis strain resistant to pyrazinamide (PZA)
[2] = tested on: Mycobacterium tuberculosis; test: Antimycobacterial activity against Mycobacterium tuberculosis strain resistant to isoniazid (INH)
[3] = tested on: Mycobacterium tuberculosis; test: Antimycobacterial activity against Mycobacterium tuberculosis strain resistant to ethambutol (EMB)
[4] = tested on: Mycobacterium tuberculosis; test: Antimycobacterial activity against Mycobacterium tuberculosis strain resistant to cycloserine (CS)
[5] = tested on: Mycobacterium tuberculosis; test: Antimycobacterial activity against Mycobacterium tuberculosis strain resistant to rifampin (RMP)
[6] = tested on: Mycobacterium tuberculosis; test: Antimycobacterial activity against Mycobacterium tuberculosis strain resistant to ethionamide (ETA)
[7] = tested on: Mycobacterium tuberculosis; test: Antimycobacterial activity against Mycobacterium tuberculosis strain resistant to kanamycin (KM)
[8] = tested on: Mycobacterium tuberculosis; test: Antimycobacterial activity against Mycobacterium tuberculosis strain resistant to thiacetazone (TAC)
[9] = tested on: Mycobacterium tuberculosis; test: Antimycobacterial activity against Mycobacterium tuberculosis strain resistant to para-aminosalicilyc acid (PAS)

Row | SMILES | MIC [1] [µg/mL] | MIC [2] [µg/mL] | MIC [3] [µg/mL] | MIC [4] [µg/mL] | MIC [5] [µg/mL] | MIC [6] [µg/mL] | MIC [7] [µg/mL] | MIC [8] [µg/mL] | MIC [9] [µg/mL]
1 | O=S(=O)(c1ccc(Cl)cc1)n1cnc2c(S)ncnc21 | 12.5 (≈ 38.3 µM) | 12.5 (≈ 38.3 µM) | 6.25 (≈ 19.1 µM) | 6.25 (≈ 19.1 µM) | 12.5 (≈ 38.3 µM) | 25 (≈ 76.5 µM) | 12.5 (≈ 38.3 µM) | 6.25 (≈ 19.1 µM) | 6.25 (≈ 19.1 µM)
2 | O=[N+]([O-])c1ccc(Sn2cnc3c(S)ncnc32)cc1 |  | 6.25 (≈ 20.5 µM) | 0.78 (≈ 2.55 µM) |  | 0.78 (≈ 2.55 µM) |  | 1.56 (≈ 5.11 µM) |  | 
3 | CO[C@H]1/C=C/O[C@@]2(C)Oc3c(C)c(O)c4c(O)c(c(/C=N/N5CCN(C)CC5)c(O)c4c3C2=O)NC(=O)/C(C)=C\C=C\[C@H](C)[C@H](O)[C@@H](C)[C@@H](O)[C@@H](C)[C@H](OC(C)=O)[C@@H]1C [RIFAMPIN] | 0.125 (≈ 0.152 µM) | 0.125 (≈ 0.152 µM) | 0.125 (≈ 0.152 µM) | 0.125 (≈ 0.152 µM) | > 8 | 0.125 (≈ 0.152 µM) | 0.125 (≈ 0.152 µM) | 0.125 (≈ 0.152 µM) | 0.125 (≈ 0.152 µM)
4 | CN(C)S(=O)(=O)n1cnc2c(=S)[nH]cnc21 | 3.13 (≈ 12.1 µM) | 6.25 (≈ 24.1 µM) | 3.13 (≈ 12.1 µM) | 3.13 (≈ 12.1 µM) | 6.25 (≈ 24.1 µM) | 12.5 (≈ 48.2 µM) | 6.25 (≈ 24.1 µM) | 3.13 (≈ 12.1 µM) | 3.13 (≈ 12.1 µM)
5 | Nc1cccc(S(=O)(=O)n2cnc3c(S)ncnc32)c1 | 12.5 (≈ 40.7 µM) | 12.5 (≈ 40.7 µM) | 12.5 (≈ 40.7 µM) | 12.5 (≈ 40.7 µM) | 12.5 (≈ 40.7 µM) | 50 (≈ 163 µM) | 12.5 (≈ 40.7 µM) | 12.5 (≈ 40.7 µM) | 12.5 (≈ 40.7 µM)
6 | CC(=O)Nc1ccc(S(=O)(=O)n2cnc3c(S)ncnc32)cc1 | 6.25 (≈ 17.9 µM) | 12.5 (≈ 35.8 µM) | 6.25 (≈ 17.9 µM) | 6.25 (≈ 17.9 µM) | 12.5 (≈ 35.8 µM) | 25 (≈ 71.6 µM) | 12.5 (≈ 35.8 µM) | 6.25 (≈ 17.9 µM) | 6.25 (≈ 17.9 µM)
